What all share (assay): NCI tumour cell line growth inhibition, 48 h
The subject of assay [1] is ACHN renal.
In assay [2] the test system is HOP-62 NSCLC.
The test system of assay [3] is KM12 colon.
Assay [4] relates to NCI-H226 lung.
Assay [5] concerns NCI-H522 lung.
Assay [6] deals with RXF 393 renal.
Assay [7] has as its system SF-539 CNS.
Assay [8] relates to SN12C renal.
Assay [9] deals with UO-31 renal.

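Values below derive from 48-hour exposures of cells grown in 96-well plates, with endpoints linearly interpolated between the two concentrations bracketing the appropriate inhibition level. GI50 is the concentration that inhibits growth by half. TGI denotes the concentration required for complete inhibition of growth.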

GI50 and TGI data for eight compounds are collected here from PubChem BioAssay (NCI).

As for `CCC(CO)Nc1nc(NCc2ccccc2)c2n[nH]c(C(C)C)c2n1` (centres undefined), the GI50 was 4.42 µM in [1]; 13.9 µM in assay [2]; 10.2 µM in assay [3]; 23.8 µM in assay [4]; 14.5 µM in [5]; 5.89 µM in assay [6]. The results for the GI50 in assay [7], in assay [8] and in [9] were 12.7 µM, 14.1 µM and 7.43 µM, respectively. In addition, the TGI in [1] came out at 16.9 µM; in assay [2] it was 31.8 µM; in assay [3] it was 23.1 µM; in assay [4], 60.8 µM; in [5], 34.1 µM; in assay [6] it was 21 µM. The values for the TGI in [7], in assay [8] and in assay [9] were 26.1 µM, 31.7 µM and 21.9 µM, respectively.
Take `C#Cc1cccc(Nc2nc(C)nc3cc(NC(=O)CCl)ccc23)c1`: the GI50 in assay [1] was 2.98 µM; in [2] it was 3.65 µM; in [3], 4.13 µM; in assay [4], 3.06 µM; in assay [5], 0.454 µM; in assay [6], 3.28 µM. Besides, the GI50 in [7] is 3.34 µM; in [8] it was 0.896 µM; in [9], 3.24 µM. In addition, the TGI is 6.67 µM in [1]; 7.85 µM in assay [2]; 8.15 µM in assay [3]; 8.25 µM in assay [4]; 0.92 µM in assay [5]; 6.86 µM in assay [6]. For the same compound, the TGI worked out at 6.6 µM in assay [7], 3.58 µM in assay [8] and 6.74 µM in [9].
Regarding `C=C[C@@H]1CCC/C=C/[C@@H]2C[C@H](O)C[C@H]2[C@H](O)/C=C/C(=O)O1`, the GI50 in assay [1] was 1.03 µM; in assay [2] it was 1.33 µM; in assay [3] it was 0.35 µM; in assay [4], 0.265 µM; in [5], 1.52 µM; in [6], 0.247 µM. Further, the GI50 in assay [7] was 0.65 µM; in assay [8] it was 1.53 µM; in assay [9] it was 0.37 µM. The TGI in assay [1] is > 100 µM; in assay [2], > 100 µM; in assay [3], 1.35 µM; in [4], 0.784 µM; in assay [5], 4.24 µM; in assay [6], 0.68 µM. For the same compound, the TGI in assay [7], in [8] and in assay [9] was > 100 µM throughout.
Turning to `CCCCNC(=O)Oc1ccc(/C(=C(\C)c2ccc(OC)cc2)c2ccc(OCCN3CCCCC3)cc2)cc1`, the GI50 in [1] was 3.12 µM; in assay [2], 3.15 µM; in assay [3], 2.35 µM; in assay [4] it was 7.77 µM; in [5] it was 3.42 µM; in assay [6] it was 2.09 µM. Also, the GI50 in assay [7] was 1.64 µM; in [8], 2.21 µM; in assay [9] it was 1.71 µM. In addition, the TGI was 10.7 µM in assay [1]; 10.7 µM in assay [2]; 5.91 µM in [3]; 27.9 µM in assay [4]; 11.4 µM in assay [5]; 4.3 µM in assay [6]. Besides, the TGI in [7] is 3.12 µM; in assay [8], 6.01 µM; in assay [9], 4.01 µM.
With `[Mn+3].[O-][Cl+3]([O-])([O-])O.[O-]c1ccccc1C=NCCN1CC1.[O-]c1ccccc1C=NCCN1CC1`, the GI50 is 23.5 µM in assay [1]; 28.6 µM in assay [2]; 17 µM in [3]; 12.3 µM in assay [4]; 27.8 µM in [5]; 63 µM in assay [6]. In addition, the GI50 in assay [7] is 30.6 µM; in [8], 19.4 µM; in assay [9], > 100 µM. The TGI is 72.9 µM in [1]; > 100 µM in [2]; 39 µM in assay [3]; 35.8 µM in [4]; > 100 µM in [5]; > 100 µM in assay [6]. Besides, the TGI in [7], in assay [8] and in [9] was > 100 µM throughout.
Turning to `O=c1cc(-c2ccccc2)oc2c(O)c(O)ccc12`, the GI50 in assay [1] is 5.69 µM; in assay [2], 7.08 µM; in assay [3], 10.3 µM; in assay [4], 21 µM; in assay [5], 8.27 µM; in assay [6], 9.95 µM. Moreover, the values for the GI50 in [7], in [8] and in [9] were 14.6 µM, 12.2 µM and 3.02 µM, respectively. The TGI in assay [1] is > 100 µM; in assay [2], > 100 µM; in assay [3] it was > 100 µM; in [4], > 100 µM; in [5] it was > 100 µM; in [6] it was 52.7 µM. Moreover, the values for the TGI in assay [7], in assay [8] and in assay [9] were > 100 µM, > 100 µM and 29 µM, respectively.
For `O=C1/C(=C/c2ccc(Cl)cc2)N=C(c2ccccc2)N1c1cc(C(F)(F)F)ccc1Cl`, the GI50 in assay [1] was 22.1 µM; in assay [2] it was 15 µM; in assay [3], 21.9 µM; in [4], 23.6 µM; in assay [5], 20.1 µM; in assay [6], 27.5 µM. For the same compound, the GI50 in assay [7] was 18.1 µM; in [8], 30.5 µM; in assay [9], 19.4 µM. In addition, the TGI in assay [1] was > 100 µM; in assay [2], 42.8 µM; in [3], 84 µM; in assay [4] it was > 100 µM; in assay [5], 76 µM; in assay [6], > 100 µM. For the same compound, the TGI in assay [7] was 44.3 µM; in [8], > 100 µM; in assay [9] it was > 100 µM.
In the case of `COc1ccc(-c2oc3ncnc(N)c3c2-c2ccc(NC(=O)Nc3cc(C(F)(F)F)ccc3F)cc2)cc1`, the GI50 was 0.95 µM in [1]; 0.953 µM in assay [2]; 0.00588 µM in [3]; 0.601 µM in assay [4]; 1.23 µM in assay [5]; 0.473 µM in assay [6]. Moreover, the GI50 is 1.55 µM in assay [7], 0.828 µM in [8] and 0.706 µM in assay [9]. Besides, the TGI in assay [1] was determined as 7.89 µM; in [2], 3.38 µM; in assay [3], 1.51 µM; in assay [4] it was 8.36 µM; in [5], 4.28 µM; in assay [6], 1.15 µM. The results for the TGI in [7], in assay [8] and in [9] were 5.41 µM, 3.75 µM and 5.01 µM, respectively.
